Consider eleven compounds from patent US10174035B2, “6-morpholinyl-2-pyrazolyl-9H-purine derivatives and their use as PI3K inhibitors” (Daiichi Sankyo Company, Limited, priority 2015, dated 2019).

Converted amounts (≈) assume the structure as drawn. Read-outs that look alike come from different tables or passages of the source. A value given as a limit tells only on which side of the number the result lay.

Data set [1] has as its target recombinant PI3K δ enzyme (Homo sapiens (Human), UniProt O00329). Put plainly: In vitro enzyme assay (Kinase-Glo luminescent kinase assay), PI3Kδ. It is filed as biochemical. In short, it runs like this:
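Each recombinant human PI3K isoform at 2.29 μg/mL with 60 μM PIP2 and 10 μM ATP in HEPES pH 7.4, NaCl, CHAPS, MgCl2, DTT, 2 hours at room temperature. Remaining ATP read by Kinase-Glo luminescence relative to no-enzyme blanks.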

Another data set concerns the target PI3Kγ (Homo sapiens (Human), UniProt P48736). Put plainly: In vitro enzyme assay (Kinase-Glo), selectivity, PI3Kγ. The class given is biochemical. The settings on record: enzyme 2.29 μg/mL; ATP 10 μM; PIP2 60 μM; 2 hours. The procedure: The Kinase-Glo luminescent kinase assay kit (from Promega) was used to measure kinase activity. In this assay, amount of ATP remaining in solution following a kinase reaction is measured. […] The reaction mixture was incubated for 2 hours at room temperature. At the end of incubation period the equal volume of Kinase-Glo plus (Promega, V3772), was added per well and the luminescence was measured after incubating for 10 minutes at room temperature in dark. Results were calculated by measuring the luminescence units of test samples to blanks containing no enzyme.
The compounds of the present invention were tested for their selectivity for PI3Kδ over PI3Kα, PI3Kβ and PI3Kγ following the above assay using specific recombinant enzymes (Proteros, Germany) for each kinase. Assay condition of kinase assay (PI3Kα, PI3Kβ, PI3Kγ and PI3Kδ) was as follows.

Data set [2] has as its system IFN-γ release in mouse splenocytes. As to the kind of experiment: Phytohaemagglutinin (PHA)-induced interferon (IFN)-gamma release in mouse splenocytes. The arrangement: species or system C57BL/6 mouse. The settings on record: Splenocyte, PHA (10 μg/ml) for 48 hours, IFN-γ by ELISA, read-out: Cell Based IC50. The procedure: Effect of compounds on mitogen-induced IFN-γ release in mouse splenocytes was used to evaluate their potency in cell-based assay system [Blood (2010) 115: 2203-2213; Current Protocols in Immunology (2004) 3.12.1-3.12.20].
Mouse splenocytes were obtained from the spleen of a C57BL/6 mouse and plated at a density of 0.25 million cells/well in a 96 well tissue culture plate. The effect of the compounds to inhibit IFN-γ release was evaluated by treating the splenocytes with various concentrations of the test compounds followed by stimulation with PHA (10 μg/ml) for 48 hours. The IFN-γ release in the cell culture supernatant was quantified by ELISA as per the manufacturer's protocol (BD Biosciences, #555138).

In the next data set the target is PI3Kα (Homo sapiens (Human), UniProt P42336). Put plainly: In vitro enzyme assay (Kinase-Glo), selectivity, PI3Kα. It is filed as biochemical. The settings on record: enzyme 2.29 μg/mL; ATP 10 μM; PIP2 60 μM; 2 hours. The protocol:
(§1) The Kinase-Glo luminescent kinase assay kit (from Promega) was used to measure kinase activity. In this assay, amount of ATP remaining in solution following a kinase reaction is measured. The effect of compounds on PI3Kδ inhibition was carried out by adding 2.29 μg/ml of recombinant PI3K δ enzyme (Proteros, Germany) to reaction mixture containing assay buffer (50 mM HEPES, pH 7.4, 50 mM NaCl, 0.05% CHAPS) supplemented with 10 mM MgCl2, 5 mM DTT, 60 μM Phosphatidyl inositol bisphosphate (PIP2) and 10 μM ATP in the absence or presence of different concentrations of the compounds in a final volume of 15 μl/well, in a 384 well plate. The reaction mixture was incubated for 2 hours at room temperature. At the end of incubation period the equal volume of Kinase-Glo plus (Promega, V3772), was added per well and the luminescence was measured after incubating for 10 minutes at room temperature in dark. Results were calculated by measuring the luminescence units of test samples to blanks containing no enzyme.
(§2) The compounds of the present invention were tested for their selectivity for PI3Kδ over PI3Kα, PI3Kβ and PI3Kγ following the above assay using specific recombinant enzymes (Proteros, Germany) for each kinase. Assay condition of kinase assay (PI3Kα, PI3Kβ, PI3Kγ and PI3Kδ) was as follows. Enzyme: 2.29 μg/mL; ATP: 10 μM; PIP2 substrate: 60 μM and Reaction Time: 2 hours.

A further data set has as its target PI3Kβ (Homo sapiens (Human), UniProt P42338). Put plainly: In vitro enzyme assay (Kinase-Glo), selectivity, PI3Kβ. It is filed as biochemical. The settings on record: enzyme 2.29 μg/mL; ATP 10 μM; PIP2 60 μM; 2 hours. The protocol:
as §1, §2

Data set [3] concerns eosinophil count in bronchoalveolar lavage fluid. As to the kind of experiment: Ovalbumin-induced airway eosinophilia model in Brown Norway rats. The class given is in vivo. The settings on record: oral; for Percent inhibition of BAL eosinophil count at 3 mg/kg: ovalbumin challenge; for ED50: bid, absolute eosinophil count in BAL fluid. The protocol: The protocols were followed in similar fashion as described in Clin. Exp. Immunol., 2001; 126:9-15 and J. Pharmacol. Exp. Ther., 2011; 337:145-54. Male Brown Norway rats were sensitized by intraperitoneal injection of a suspension of 1 mg of ovalbumin and 100 mg of aluminum hydroxide (in sterile 0.9% saline) on day 0 and 7. On day 14, the compounds were administered to the rats by oral gavage. One hour after oral administration, the animals were placed into a perspex chamber and exposed to an aerosol of 5% ovalbumin for ten minutes. Compounds were administered on Day 14 and Day 15 either once or twice daily. Forty-eight hours after ovalbumin challenge, the animals were euthanized and bronchoalveolar lavage fluid was collected. The cell suspensions were processed and absolute eosinophil count was enumerated.

Data set [4] can be described thus: Solubility in Japanese Pharmacopeia First Fluid (JP1) and Second Fluid (JP2). The class given is physicochemical. The settings on record: thermodynamic from solid, room temperature. The protocol: A 10 mmol/L solution of the test compound was prepared in DMSO and dispensed 100 μL of 10 mmol/L DMSO stock solutions into labeled glass tubes in duplicate, one for Japanese Pharmacopeia First Fluid (JP1) and second for Japanese Pharmacopeia Second Fluid (JP2). After evaporation of DMSO from each tube, 500 μL of JP1 and JP2 fluid were added in each tube, respectively. These tubes were sonicated for 1 minute and placed on shaker for 30 minutes with an interval of 30 seconds at every 5 minute. Tubes were placed in dark at room temperature for 1 hour and solution was filtered through membrane filter. The filtrate was diluted 2-fold and 10-fold. The resulting test solutions was analyzed and quantified against the standards using UPLC (standard preparation-10 mmol/L solution in DMSO is serially diluted with 50% aqueous acetonitrile solution to prepare 2 solutions; 100 μmol/L standard solution and 5 μmol/L standard solution).

Where [5] appears, read: enzyme 2.29 μg/mL, ATP 10 μM, PIP2 60 μM, 2 hours.
[6] abbreviates: pH 1.2, simulated gastric fluid, Japanese Pharmacopeia First Fluid (JP1), read-out: Solubility JP1.
The mark [7] stands for this setting: pH 6.8, aqueous buffer, Japanese Pharmacopeia Second Fluid (JP2), read-out: Solubility JP2.

Sequence of PI3Kβ (P42338 whole entry, species assumed): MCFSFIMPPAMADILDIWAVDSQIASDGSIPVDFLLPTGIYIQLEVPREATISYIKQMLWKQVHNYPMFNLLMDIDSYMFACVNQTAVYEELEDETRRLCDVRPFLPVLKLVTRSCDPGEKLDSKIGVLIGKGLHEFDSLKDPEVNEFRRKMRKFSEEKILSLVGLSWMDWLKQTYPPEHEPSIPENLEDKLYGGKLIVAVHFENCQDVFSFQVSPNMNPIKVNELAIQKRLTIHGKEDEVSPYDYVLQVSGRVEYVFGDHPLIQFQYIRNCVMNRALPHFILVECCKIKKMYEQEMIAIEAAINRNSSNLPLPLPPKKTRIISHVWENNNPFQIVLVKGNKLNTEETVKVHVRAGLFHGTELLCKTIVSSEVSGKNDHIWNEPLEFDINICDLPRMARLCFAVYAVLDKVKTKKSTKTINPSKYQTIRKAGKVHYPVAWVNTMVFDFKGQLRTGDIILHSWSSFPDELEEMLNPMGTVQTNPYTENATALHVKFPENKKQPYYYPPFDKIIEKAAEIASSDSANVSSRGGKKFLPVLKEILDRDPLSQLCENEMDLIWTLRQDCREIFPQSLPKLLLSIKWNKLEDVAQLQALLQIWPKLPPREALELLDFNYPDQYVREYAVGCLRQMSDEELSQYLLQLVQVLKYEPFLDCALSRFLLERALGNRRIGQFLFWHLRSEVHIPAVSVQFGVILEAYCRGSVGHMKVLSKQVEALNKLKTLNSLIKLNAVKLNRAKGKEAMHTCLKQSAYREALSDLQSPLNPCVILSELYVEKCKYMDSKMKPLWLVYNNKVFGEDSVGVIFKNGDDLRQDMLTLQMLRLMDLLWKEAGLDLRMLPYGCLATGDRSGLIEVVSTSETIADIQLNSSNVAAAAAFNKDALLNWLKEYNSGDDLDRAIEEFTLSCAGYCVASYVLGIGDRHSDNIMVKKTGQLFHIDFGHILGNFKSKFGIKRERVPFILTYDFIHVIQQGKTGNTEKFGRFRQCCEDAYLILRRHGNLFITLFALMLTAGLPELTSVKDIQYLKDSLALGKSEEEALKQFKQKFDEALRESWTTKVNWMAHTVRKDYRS
Sequence of PI3Kβ (P27986 whole entry partner, species assumed): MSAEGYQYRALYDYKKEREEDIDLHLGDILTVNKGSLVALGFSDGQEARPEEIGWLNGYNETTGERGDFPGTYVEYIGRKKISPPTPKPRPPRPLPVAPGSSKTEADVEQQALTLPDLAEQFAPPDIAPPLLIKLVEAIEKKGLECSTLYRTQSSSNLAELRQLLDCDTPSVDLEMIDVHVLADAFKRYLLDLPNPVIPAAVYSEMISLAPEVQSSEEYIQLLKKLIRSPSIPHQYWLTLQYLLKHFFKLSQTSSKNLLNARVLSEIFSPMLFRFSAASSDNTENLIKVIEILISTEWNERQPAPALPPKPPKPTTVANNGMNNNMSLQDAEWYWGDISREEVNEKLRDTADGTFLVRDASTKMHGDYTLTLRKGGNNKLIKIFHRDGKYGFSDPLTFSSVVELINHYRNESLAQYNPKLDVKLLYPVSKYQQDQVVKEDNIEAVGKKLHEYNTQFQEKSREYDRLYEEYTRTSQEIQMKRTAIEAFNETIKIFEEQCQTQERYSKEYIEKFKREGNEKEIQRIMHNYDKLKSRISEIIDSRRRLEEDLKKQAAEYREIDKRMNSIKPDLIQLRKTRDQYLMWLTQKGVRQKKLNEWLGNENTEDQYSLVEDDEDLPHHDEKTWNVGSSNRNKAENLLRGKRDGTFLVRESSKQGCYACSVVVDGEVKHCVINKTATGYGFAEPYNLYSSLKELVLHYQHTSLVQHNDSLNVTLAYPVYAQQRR
Sequence of recombinant PI3K δ enzyme (O00329 whole entry, species assumed, canonical isoform): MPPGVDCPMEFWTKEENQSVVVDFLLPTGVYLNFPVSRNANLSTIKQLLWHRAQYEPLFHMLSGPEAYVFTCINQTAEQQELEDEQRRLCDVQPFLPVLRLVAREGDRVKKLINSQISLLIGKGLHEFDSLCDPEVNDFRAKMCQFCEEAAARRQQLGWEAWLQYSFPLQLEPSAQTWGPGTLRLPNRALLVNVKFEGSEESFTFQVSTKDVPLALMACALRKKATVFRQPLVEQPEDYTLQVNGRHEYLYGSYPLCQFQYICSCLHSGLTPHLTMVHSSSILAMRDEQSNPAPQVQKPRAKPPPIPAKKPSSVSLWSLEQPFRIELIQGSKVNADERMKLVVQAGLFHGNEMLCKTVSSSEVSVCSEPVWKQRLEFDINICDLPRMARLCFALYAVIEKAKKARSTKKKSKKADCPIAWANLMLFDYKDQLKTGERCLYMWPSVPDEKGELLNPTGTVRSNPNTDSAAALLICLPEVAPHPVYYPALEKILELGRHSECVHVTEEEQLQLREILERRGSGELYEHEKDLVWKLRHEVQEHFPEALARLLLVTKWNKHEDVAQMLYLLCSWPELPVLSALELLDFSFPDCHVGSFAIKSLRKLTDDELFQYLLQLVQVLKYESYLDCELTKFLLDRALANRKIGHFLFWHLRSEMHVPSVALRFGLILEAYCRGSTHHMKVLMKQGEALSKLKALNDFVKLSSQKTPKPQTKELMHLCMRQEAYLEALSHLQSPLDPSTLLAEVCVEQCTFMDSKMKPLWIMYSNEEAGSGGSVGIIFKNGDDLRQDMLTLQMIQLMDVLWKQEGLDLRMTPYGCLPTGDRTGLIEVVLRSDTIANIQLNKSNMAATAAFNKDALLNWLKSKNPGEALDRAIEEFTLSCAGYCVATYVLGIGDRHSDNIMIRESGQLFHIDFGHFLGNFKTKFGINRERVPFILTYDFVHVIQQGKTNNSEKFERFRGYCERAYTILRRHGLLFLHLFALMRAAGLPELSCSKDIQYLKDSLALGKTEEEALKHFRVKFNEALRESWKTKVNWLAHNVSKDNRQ
Sequence of recombinant PI3K δ enzyme (P27986 whole entry partner, species assumed, canonical isoform): as the sequence (P27986 whole entry partner, species assumed) above
Sequence of PI3Kγ (P48736 whole entry, species assumed): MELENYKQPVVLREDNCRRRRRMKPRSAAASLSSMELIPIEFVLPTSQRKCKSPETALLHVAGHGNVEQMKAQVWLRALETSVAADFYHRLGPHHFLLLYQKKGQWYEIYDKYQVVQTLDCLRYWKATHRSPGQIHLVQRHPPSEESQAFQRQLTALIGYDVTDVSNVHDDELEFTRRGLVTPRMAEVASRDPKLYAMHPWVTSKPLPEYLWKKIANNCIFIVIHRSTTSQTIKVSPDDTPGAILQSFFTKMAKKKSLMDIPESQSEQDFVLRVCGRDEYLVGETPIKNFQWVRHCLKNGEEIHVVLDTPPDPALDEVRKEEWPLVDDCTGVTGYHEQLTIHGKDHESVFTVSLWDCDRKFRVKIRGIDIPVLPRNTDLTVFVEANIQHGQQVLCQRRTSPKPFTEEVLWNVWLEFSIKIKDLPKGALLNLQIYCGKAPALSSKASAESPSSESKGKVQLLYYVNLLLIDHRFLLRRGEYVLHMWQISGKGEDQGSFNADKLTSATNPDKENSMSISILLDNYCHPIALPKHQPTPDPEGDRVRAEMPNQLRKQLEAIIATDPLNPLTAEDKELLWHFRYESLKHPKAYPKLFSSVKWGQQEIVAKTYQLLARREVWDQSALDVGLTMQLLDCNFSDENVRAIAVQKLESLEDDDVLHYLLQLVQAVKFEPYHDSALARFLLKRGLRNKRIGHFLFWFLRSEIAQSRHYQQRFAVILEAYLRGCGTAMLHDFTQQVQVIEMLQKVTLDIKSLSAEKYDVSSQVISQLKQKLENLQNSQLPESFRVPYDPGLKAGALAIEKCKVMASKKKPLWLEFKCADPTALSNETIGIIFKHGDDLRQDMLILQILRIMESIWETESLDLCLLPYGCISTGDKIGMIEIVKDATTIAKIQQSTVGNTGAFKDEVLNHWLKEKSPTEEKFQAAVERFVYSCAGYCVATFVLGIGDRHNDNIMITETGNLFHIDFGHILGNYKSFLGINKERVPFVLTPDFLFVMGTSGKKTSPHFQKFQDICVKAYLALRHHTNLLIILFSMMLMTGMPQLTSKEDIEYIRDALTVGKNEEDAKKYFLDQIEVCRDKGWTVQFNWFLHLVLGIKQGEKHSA
Sequence of PI3Kα (P42336 whole entry, species assumed): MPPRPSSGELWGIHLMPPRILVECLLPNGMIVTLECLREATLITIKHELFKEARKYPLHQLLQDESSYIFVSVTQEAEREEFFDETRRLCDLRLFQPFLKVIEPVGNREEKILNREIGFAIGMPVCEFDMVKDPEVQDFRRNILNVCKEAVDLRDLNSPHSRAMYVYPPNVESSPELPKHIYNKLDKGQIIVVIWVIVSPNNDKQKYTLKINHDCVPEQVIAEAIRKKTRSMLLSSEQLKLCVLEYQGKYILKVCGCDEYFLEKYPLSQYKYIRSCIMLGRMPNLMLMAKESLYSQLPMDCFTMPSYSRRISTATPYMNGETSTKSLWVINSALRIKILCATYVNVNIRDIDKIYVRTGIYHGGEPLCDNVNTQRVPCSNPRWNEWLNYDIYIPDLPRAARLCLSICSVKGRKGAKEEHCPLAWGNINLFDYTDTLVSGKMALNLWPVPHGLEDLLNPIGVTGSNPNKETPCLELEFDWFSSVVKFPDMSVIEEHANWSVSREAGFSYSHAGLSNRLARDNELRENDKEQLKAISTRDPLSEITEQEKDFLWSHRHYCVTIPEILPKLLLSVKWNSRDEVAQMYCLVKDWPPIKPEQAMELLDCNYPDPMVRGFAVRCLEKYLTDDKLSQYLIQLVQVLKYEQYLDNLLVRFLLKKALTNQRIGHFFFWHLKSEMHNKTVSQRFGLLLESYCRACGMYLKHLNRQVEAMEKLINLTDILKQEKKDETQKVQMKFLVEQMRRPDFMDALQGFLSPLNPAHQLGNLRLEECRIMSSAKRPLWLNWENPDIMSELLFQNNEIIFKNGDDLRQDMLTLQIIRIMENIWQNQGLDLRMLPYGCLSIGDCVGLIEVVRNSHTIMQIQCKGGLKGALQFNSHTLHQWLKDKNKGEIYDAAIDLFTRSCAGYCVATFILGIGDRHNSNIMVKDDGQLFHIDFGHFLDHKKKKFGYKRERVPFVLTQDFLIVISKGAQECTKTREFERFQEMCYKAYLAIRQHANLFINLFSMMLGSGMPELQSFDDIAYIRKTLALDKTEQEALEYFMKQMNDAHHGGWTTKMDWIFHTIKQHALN
Sequence of PI3Kα (P27986 whole entry partner, species assumed): as the sequence (P27986 whole entry partner, species assumed) above

On to `Cn1cc(-c2nc(N3CCOCC3)c3nc(C(=O)N4CCC5(CC4)COC5)[nH]c3n2)cn1` [compound 3, [2-(1-Methyl-1H-pyrazol-4-yl)-6-(morpholin-4-yl)-9H-purin-8-yl](2-oxa-7-azaspiro[3.5]non-7-yl)methanone], for which the IC50 in data set [1] was 15 nM; in data set [1] (setting [5]), 15 nM; on PI3Kγ, over 1000 nM; in data set [2], 55 nM; against PI3Kα, over 1000 nM; at PI3Kβ, over 10000 nM. Moreover, in data set [3], the “Percent inhibition of BAL eosinophil count at 3 mg/kg” value (“Percent inhibition” below) amounted to 46%.

On to `O=C(c1nc2c(N3CCOCC3)nc(-c3cn[nH]c3)nc2[nH]1)N1CCC(N2CCOCC2)CC1` [compound 42, [4-(Morpholin-4-yl)piperidin-1-yl][6-(morpholin-4-yl)-2-(1H-pyrazol-4-yl)-9H-purin-8-yl]methanone], for which the solubility at 30 min in data set [4] (setting [6]) is over 1510 µg/mL; in data set [4] (setting [7]), 124 µg/mL (≈ 265 µM).

As for `Cn1cc(-c2cc(N3CCOCC3)c3nc(C(=O)N4CCC(N5CCOCC5=O)CC4)[nH]c3n2)cn1` [compound 77, 4-(1-{[5-(1-Methyl-1H-pyrazol-4-yl)-7-(morpholin-4-yl)-3H-imidazo[4,5-b]pyridin-2-yl]carbonyl}piperidin-4-yl)morpholin-3-one], the IC50 in data set [1] turned out to be 9 nM. The solubility at 30 min is 1430 µg/mL (≈ 2890 µM) in data set [4] (setting [6]) and 251 µg/mL (≈ 508 µM) in data set [4] (setting [7]).

Turning to `Cn1cc(-c2cc(N3CCOCC3)c3nc(C(=O)N4CCC5(CC4)COC5)[nH]c3n2)cn1` [compound 78, [5-(1-Methyl-1H-pyrazol-4-yl)-7-(morpholin-4-yl)-3H-imidazo[4,5-b]pyridin-2-yl](2-oxa-7-azaspiro[3.5]non-7-yl)methanone], the IC50 in data set [1] is 13 nM; in data set [1] (setting [5]), 13 nM; against PI3Kγ it was 640 nM; in data set [2] it was 28 nM; at PI3Kα it was 2190 nM; against PI3Kβ, over 10000 nM. The “Percent inhibition” value in data set [3] is given as 45%.

Take `Cc1nn(C)cc1-c1nc2[nH]c(C(=O)N3CCC(C(C)(C)O)CC3)nc2c(N2CCOCC2)c1F` [compound 84, [5-(1,3-Dimethyl-1H-pyrazol-4-yl)-6-fluoro-7-(morpholin-4-yl)-3H-imidazo[4,5-b]pyridin-2-yl][4-(2-hydroxypropan-2-yl)piperidin-1-yl]methanone]: the IC50 in data set [1] is 5 nM. The “Percent inhibition” value in data set [3] was 26%.

Consider `Cc1nn(C)cc1-c1nc2c(nc(C(=O)N3CCC(N4CCOCC4)CC3)n2C)c(N2CCOCC2)c1F` [compound 87, [5-(1,3-Dimethyl-1H-pyrazol-4-yl)-6-fluoro-3-methyl-7-(morpholin-4-yl)-3H-imidazo[4,5-b]pyridin-2-yl][4-(morpholin-4-yl)piperidin-1-yl]methanone], for which the IC50 in data set [1] was 3 nM; in data set [1] (setting [5]), 3 nM; on PI3Kγ, over 10000 nM; in data set [2] it was 47 nM; against PI3Kα, over 10000 nM; at PI3Kβ it was over 10000 nM. For the same compound, the ED50 in data set [3] is recorded as 0.8 mg/kg, bid.

Regarding `Cc1nn(C)cc1-c1cc(N2CCOCC2)c2nc(C(=O)N3CCC(N4CCOCC4)CC3)[nH]c2n1` [compound 94, [5-(1,3-Dimethyl-1H-pyrazol-4-yl)-7-(morpholin-4-yl)-3H-imidazo[4,5-b]pyridin-2-yl][4-(morpholin-4-yl)piperidin-1-yl]methanone], the concentration for half-maximal inhibition (IC50) in data set [1] is 4 nM; in data set [1] (setting [5]), 4 nM; on PI3Kγ it was 3030 nM; in data set [2], 11 nM; against PI3Kα it was 971 nM; on PI3Kβ, 9910 nM. Besides, the figures for the solubility at 30 min in data set [4] (setting [6]) and in data set [4] (setting [7]) were 808 µg/mL (≈ 1630 µM) and 754 µg/mL (≈ 1520 µM), respectively.

Take `Cc1nn(C)cc1-c1nc2[nH]c(C(=O)N3CCC(N4CCOCC4)CC3)nc2c(N2CCOCC2)c1F` [compound 96, [5-(1,3-Dimethyl-1H-pyrazol-4-yl)-6-fluoro-7-(morpholin-4-yl)-3H-imidazo[4,5-b]pyridin-2-yl][4-(morpholin-4-yl)piperidin-1-yl]methanone]: the IC50 in data set [1] turned out to be 3 nM. The figures for the solubility at 30 min in data set [4] (setting [6]) and in data set [4] (setting [7]) were over 1020 µg/mL and 424 µg/mL (≈ 827 µM), respectively. Moreover, the ED50 in data set [3] is 2.5 mg/kg, bid.

Turning to `Cc1nn(C)cc1-c1nc2[nH]c(C(=O)N3CCC(N(C)C)CC3)nc2c(N2CCOCC2)c1F` [compound 97, [4-(Dimethylamino)piperidin-1-yl][5-(1,3-dimethyl-1H-pyrazol-4-yl)-6-fluoro-7-(morpholin-4-yl)-3H-imidazo[4,5-b]pyridin-2-yl]methanone], the concentration for half-maximal inhibition (IC50) in data set [1] was 3 nM; in data set [1] (setting [5]), 3 nM; on PI3Kγ, 961 nM; in data set [2], 183 nM; on PI3Kα, 1080 nM; at PI3Kβ it was over 10000 nM. For the same compound, the solubility at 30 min was over 936 µg/mL in data set [4] (setting [6]) and over 923 µg/mL in data set [4] (setting [7]).

For `CN(C)C1CCN(C(=O)c2nc3c(N4CCOCC4)c(F)c(-c4cnn(C)c4)nc3[nH]2)CC1` [compound 99, [4-(Dimethylamino)piperidin-1-yl][6-fluoro-5-(1-methyl-1H-pyrazol-4-yl)-7-(morpholin-4-yl)-3H-imidazo[4,5-b]pyridin-2-yl]methanone], in data set [1], the IC50 worked out at 29 nM. In addition, the solubility at 30 min in data set [4] (setting [6]) is 816 µg/mL (≈ 1790 µM); in data set [4] (setting [7]), 321 µg/mL (≈ 703 µM).

For the compound `Cn1cc(-c2cc(N3CCOCC3)c3nc(C(=O)N4CCC(N5CCOCC5)CC4)[nH]c3n2)cn1` [compound 102, [5-(1-Methyl-1H-pyrazol-4-yl)-7-(morpholin-4-yl)-3H-imidazo[4,5-b]pyridin-2-yl][4-(morpholin-4-yl)piperidin-1-yl]methanone], in data set [1], the IC50 is 19 nM. Also, the figures for the solubility at 30 min in data set [4] (setting [6]) and in data set [4] (setting [7]) were 932 µg/mL (≈ 1940 µM) and 560 µg/mL (≈ 1170 µM), respectively.
